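Results reflect a 48-hour exposure of cells in 96-well plates to compound at five concentrations. GI50: concentration for 50% inhibition of growth. TGI is the concentration that stops growth completely.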
Assays:
Experiment in all cases: DTP human tumour cell line panel, 48 h
[1] = test system: 786-0 renal
[2] = test system: BT-549 breast
[3] = test system: HCT-15 colon
[4] = test system: HOP-62 NSCLC
[5] = test system: HT29 colon
[6] = test system: NCI/ADR-RES ovarian
[7] = test system: OVCAR-5 ovarian
[8] = test system: RXF 393 renal
[9] = test system: SK-MEL-2 melanoma
[10] = test system: SK-MEL-28 melanoma

| SMILES | GI50 [1] | TGI [1] | GI50 [2] | TGI [2] | GI50 [3] | TGI [3] | GI50 [4] | TGI [4] | GI50 [5] | TGI [5] | GI50 [6] | TGI [6] | GI50 [7] | TGI [7] | GI50 [8] | TGI [8] | GI50 [9] | TGI [9] | GI50 [10] | TGI [10] |
| --- | --- | --- | --- | --- | --- | --- | --- | --- | --- | --- | --- | --- | --- | --- | --- | --- | --- | --- | --- | --- |
| COc1cccc(-c2ccc3c(c2)C2CCN(Cc4ccccc4)C3C2)c1 (centres undefined) | 13.9 µM | 36.1 µM | 6.12 µM | 21.1 µM | 4.86 µM | 19.7 µM | 12.1 µM | 35.6 µM | 3.24 µM | 12.2 µM | 8.94 µM | 32.5 µM | 11.8 µM | 29 µM | 10.1 µM | 24.6 µM | 5.04 µM | 18 µM | 13.4 µM | 65.9 µM |
| CN(Cc1cccc(F)c1)c1ccc(CO)c(Cl)c1 | 13 µM | 41.2 µM | 17.9 µM | 60.9 µM | 17.7 µM | > 83.2 µM | 4.84 µM | 47.8 µM | 7.02 µM | 59.7 µM | 17.5 µM | 58 µM | 0.41 µM | 2.61 µM | 8.72 µM | 41.7 µM | 8.39 µM | 33.7 µM | 20.7 µM | > 100 µM |
| Oc1ccc(-c2nc3ccc4[nH]ncc4c3c3c2CCCC3)c(F)c1 | 2.5 µM | 12.1 µM | 1.73 µM | 8.87 µM | 2.26 µM | 11.3 µM | 1.5 µM | 5.47 µM | 2.7 µM | 11.2 µM | 3.91 µM | 53.3 µM | 4.41 µM | 17.6 µM | 1.47 µM | 5.63 µM | 1.01 µM | 2.93 µM | 2.74 µM | 12.4 µM |
| CCN1C(=O)CCCc2c1ccc(Nc1ncc(Cl)c(NC3[C@@H](C(N)=O)[C@@H]4C=C[C@H]3C4)n1)c2OC (some centres undefined) | 1.87 µM | 9.12 µM | 3.61 µM | 17.4 µM | 0.563 µM | > 20.5 µM | 2.1 µM | 13.7 µM | 0.791 µM | 9.06 µM | 2.35 µM | > 100 µM | 1.34 µM | > 22.2 µM | 1.22 µM | 3.38 µM | 1.44 µM | 3.79 µM | 1.56 µM | 6.96 µM |
| COc1cccc(/C=N/NC(=S)NC2CC3CCC2C3)c1O (centres undefined) | 19.5 µM | 39.6 µM | 14.5 µM | 57.3 µM | 1.07 µM | > 100 µM | 3.01 µM | 10 µM | 30.1 µM | 91.4 µM | 3.16 µM | 15.1 µM | 44.9 µM | > 100 µM | 13 µM | 28.1 µM | 18.2 µM | 34.9 µM | 13.1 µM | 33.5 µM |
| COc1cc(-c2cc(-c3ccc(Nc4ccnc5cc(Cl)ccc45)cc3)nc(N3CCOCC3)n2)cc(OC)c1OC | 2.08 µM | 4.81 µM | 2.57 µM | 7.19 µM | 1.52 µM | 3.58 µM | 1.95 µM | 4.09 µM | 1.97 µM | 4.61 µM | 2.3 µM | 7.26 µM | 2.19 µM | 4.72 µM | 1.8 µM | 4.44 µM | 11.8 µM | 48 µM | 1.98 µM | 3.93 µM |
| Cc1ccc(C(NC(=O)c2ccccc2)c2ccc3cccnc3c2O)cc1 (centres undefined) | 0.301 µM | 1.81 µM | 0.524 µM | > 40.6 µM | 0.24 µM | > 91.2 µM | 0.487 µM | > 41.6 µM | 0.536 µM | 19.4 µM | 0.189 µM |  | 0.611 µM | > 70.4 µM | 0.252 µM | 1.58 µM | 0.608 µM | 10.3 µM | 0.492 µM | 41.6 µM |
| CCCCCCNC(=O)Oc1ccc(/C(=C(/C)Cc2ccc(OC)cc2)c2ccc(OCCCN(C)C)cc2)cc1 | 13.1 µM | 28.4 µM | 15.6 µM | 30.3 µM | 8.71 µM | 21.9 µM | 18.4 µM | 34.2 µM | 4.4 µM | 15.2 µM | 15.8 µM | 31.3 µM | 15.7 µM | 29.8 µM | 14.8 µM | 29.7 µM | 18.5 µM | 34 µM | 14.5 µM | 28.1 µM |
| N[C@@H]1C(=O)N2C(C(=O)OC(c3ccccc3)c3ccccc3)=C(CCl)CS[C@H]12 | 39.3 µM | 98.9 µM | 25.4 µM | 62.8 µM | 37.9 µM | > 100 µM | 63.4 µM | > 100 µM | 30.2 µM | > 94 µM | 38.2 µM | > 100 µM | 44.5 µM | > 100 µM | 26.4 µM | 63.7 µM | 54.2 µM | > 100 µM | 22.4 µM | 53.8 µM |
| COC1=C(C)C(=O)c2c(c(CCCl)c3n2CCC3O)C1=O (centres undefined) | 0.81 µM | 6.5 µM | 0.247 µM | 1.09 µM | 0.22 µM | 4.4 µM | 0.235 µM | 1.83 µM | 0.197 µM | 0.67 µM | 0.872 µM | 7.61 µM | 0.411 µM | 7.72 µM | 0.226 µM | 0.597 µM | 0.376 µM | 1.57 µM | 0.811 µM | 3.85 µM |
| CC(C)N1CCN(Cc2ccc3c(NNC(=O)c4ccccc4)nc4cc(F)ccc4n23)CC1 | 0.323 µM | 6.01 µM | 0.629 µM | 12.1 µM | 0.0563 µM | 3.91 µM | 0.176 µM | 13.7 µM | 0.673 µM | 7.46 µM | 0.237 µM | 4.53 µM | 0.674 µM | 6.83 µM | 0.792 µM | 8.87 µM | 2.78 µM | 20.8 µM | 0.599 µM | 4.58 µM |
